Tested on: T1, CpCDH (recombinant cellobiose dehydrogenase)
T1 construct: gene cdh; signal peptide (30 residues) excluded; CYT + linker + DH domains, no CBM1; pET-28a NdeI/NotI, C-terminal His tag avoided by stop codon (N-terminal His tag implied, HisTrap); E. coli BL21(DE3); 923 residues printed; forward primer starts MVEPRH; printed 2,772 bp PCR product fits poorly with residues 31-923
Test: spectrophotometric DCPIP reduction at […] nm, Michaelis-Menten
Format: biochemical, Cellulomonas palmilytica
Settings: DCPIP as electron acceptor; 50 mM sodium acetate pH 5.0; 25°C

Km [mM]	Compound
6.93	OC[C@H]1O[C@@H](O[C@H]2[C@H](O)[C@@H](O)C(O)O[C@@H]2CO)[C@H](O)[C@@H](O)[C@H]1O (some centres unmarked) [Lactose]
2.24	OC[C@H]1O[C@@H](O[C@H]2[C@H](O)[C@@H](O)C(O)O[C@@H]2CO)[C@H](O)[C@@H](O)[C@@H]1O (some centres unmarked) [Cellobiose]

— article PMC10940743, “Discovery of a Novel Cellobiose Dehydrogenase from Cellulomonas palmilytica EW123 and Its Sugar Acids Production” (Journal of Microbiology and Biotechnology, 2023)
